Measured values reported in publication PMC8408311 (Diabetologia, 2021).
Where two headings read alike, the source gives them in different places. Each block holds one compound with its values, some of them ahead of it.

What was measured:
[1] = Danish registry cohort, hypoglycaemic episodes leading to hospitalisation; format: in vivo, human
Arrb2-/- beta cells = experiment: Incretin responses in Arrb2-/- beta cells; format: cell-based, mouse
[2] = tested on: mouse pancreatic beta cells; experiment: PKA activation; format: cell-based; details: only effective from
[3] = format: in vivo, human
[4] = Insulin icodec titration trial, CGM hypoglycaemia duration, insulin-naive T2D; format: in vivo, human
[5] = tested on: insulin-naive patients with type 2 diabetes; experiment: Icodec phase 2 titration trial, CGM post hoc; format: in vivo, human; details: titration B, weeks 15&16
[6] = 3-year prospective observational study of quadruple oral therapy in T2DM; format: in vivo, human; details: empagliflozin 25 mg/day, dapagliflozin 10 mg/day
[7] = Swedish registry cohorts, causal random forest, change after 6 months versus SU; format: in vivo, human; details: after 6 months treatment
[8] = single dose 50 mg
[9] = Low dose gliclazide and sitagliptin crossover study, mixed meal test and CGM; format: in vivo, human; details: 2-hour MMT after 14 days
[10] = SUSTAIN 10 post hoc analysis by baseline SGLT-2i; format: in vivo, human
[11] = Liraglutide crossover trial, Holter monitoring and echocardiography; format: in vivo, human; details: 12 weeks
[12] = CADODIAME study, subclinical diabetic macular oedema; format: in vivo, human; details: 1000 mg twice per day, 1 year; SD 14
[13] = EXPECT trial, pregnant women with type 1 diabetes; format: in vivo, human; details: degludec once daily or detemir 1-2 times daily, both with insulin aspart
[14] = tested on: patients with type 2 diabetes at CV risk; experiment: PIONEER 6, treatment discontinuation; design: species or system human; details: in vivo
male Wistar rats = experiment: 30-min filament middle cerebral artery occlusion; format: in vivo, rat; details: 48 h after MCAO; healthy 18 points, maximal deficit 3 points
HFD C57BL/6J mice = experiment: obesity-induced cardiac dysfunction, high-fat diet mice; format: in vivo; details: 10 mg/kg/day intragastric for 8 weeks
[15] = VERTIS CV, analysis in older patients; format: in vivo, human
[16] = Tirzepatide single-dose PK in hepatic impairment; format: in vivo, human
C57BL/6 mice = experiment: High-fat diet-fed mice, 8 weeks of treatment; format: in vivo, mouse; details: HFD mice, 10mg/kg for 8 weeks
[17] = EMPA-REG OUTCOME, uric acid and gout analysis; format: in vivo, human
[18] = tested on: human hTERT-immortalized adipose tissue-derived MSCs; experiment: PPARG splicing in adipose tissue-derived MSCs treated with recombinant cytokines; format: cell-based
[19] = SURPASS-5, add-on to insulin glargine in type 2 diabetes; details: range over 5, 10, 15 mg
[20] = SURPASS-2, add-on to metformin in type 2 diabetes; format: in vivo, human; details: TZP range over 5-15 mg; SEMA 1 mg
[21] = tested on: people with T2D inadequately controlled with diet and exercise; experiment: SURPASS-1 trial; format: in vivo, human; details: across TZP doses
C57BL/6J mice = experiment: Pparg splicing in epididymal adipose tissue of LPS-injected mice; format: in vivo, mouse; details: inflamed adipose tissue, n=6

Compound: human insulin
HR for hypoglycaemic episodes leading to hospitalisation ([1]; combination human insulin): 1.84
HR for hypoglycaemic episodes leading to hospitalisation ([1]; intermediate-acting human insulin): 1.38

Compound: glucose-dependent insulinotropic polypeptide (YAEGTFISDYSIAMDKIHQQDFVNWLLAQKGKKNDWKHNITQ; Gastric inhibitory polypeptide; UniProt P09681 52-93, looked up) [GIP]
Reduction of insulin secretion in Arrb2-/- beta cells (Arrb2-/- beta cells): ~ 50%
Lowest effective concentration on PKA activation and insulin secretion [2]: ≥ 1 nM

Compound: Insulin icodec
Overall hypoglycaemic episode duration, median (IQR) ([3]; with 100% loading dose): 40.0 (20.0, 75.0) min
Overall hypoglycaemic episode duration, median (IQR) ([3]; without loading dose): 40.0 (25.0, 80.0) min
Overall hypoglycaemic episode duration, median (IQR) ([4]; titration A (4.4-7.2 mmol/L; ±21 U/week), CGM <3.9 mmol/L for at least 15 min): 35.0 (20.0, 70.0) min
Overall hypoglycaemic episode duration, median (IQR) ([4]; titration B (4.4-7.2 mmol/L ±28 U/week)): 35.0 (20.0, 70.0) min
Overall hypoglycaemic episode duration, median (IQR) ([4]; titration C (3.9-6.0 mmol/L ±28 U/week)): 39.0 (24.0, 70.0) min
patients with >70% TIR and TBR<3.9 mmol/L <4% [5]: 80.0%

Compound: CCOc1ccc(Cc2cc([C@@H]3O[C@H](CO)[C@@H](O)[C@H](O)[C@H]3O)ccc2Cl)cc1 [dapagliflozin]
Change in body weight at 3 years [6]: -1.0 ± 3.3 kg
Change in fasting plasma glucose at 3 years [6]: -47.4 ± 61.7 mg/dL
Average treatment effect on change in HbA1c compared to SU [7]: -1.10 [-1.92, -0.27] mmol/mol
adverse events [8]: no adverse events
Absolute risk reduction for the primary outcome (UACR >3500 mg/g, 95%CI 3.0, 24.5): 13.8%
Absolute risk reduction for the primary outcome (UACR >1000 to ≤3500 mg/g, 95%CI 3.6, 10.1): 6.9%

Compound: N[C@@H](CC(=O)N1CCn2c(nnc2C(F)(F)F)C1)Cc1cc(F)c(F)cc1F [DPP4, sitagliptin]
Beta cell glucose sensitivity [9]: 75.9 (55.7 - 96.0) pmol min^-1 m^-2mM^-1

Impairment of diastolic filling (e') [11]: 10%
Compound: CCCCCCCCCCCCCCCC(=O)N[C@@H](CCC(=O)NCCCC[C@H](NC(=O)[C@H](C)NC(=O)[C@H](C)NC(=O)[C@H](CCC(N)=O)NC(=O)CNC(=O)[C@H](CCC(=O)O)NC(=O)[C@H](CC(C)C)NC(=O)[C@H](Cc1ccc(O)cc1)NC(=O)[C@H](CO)NC(=O)[C@H](CO)NC(=O)[C@@H](NC(=O)[C@H](CC(=O)O)NC(=O)[C@H](CO)NC(=O)[C@@H](NC(=O)[C@H](Cc1ccccc1)NC(=O)[C@@H](NC(=O)CNC(=O)[C@H](CCC(=O)O)NC(=O)[C@H](C)NC(=O)[C@@H](N)Cc1cnc[nH]1)[C@@H](C)O)[C@@H](C)O)C(C)C)C(=O)N[C@@H](CCC(=O)O)C(=O)N[C@@H](Cc1ccccc1)C(=O)N[C@H](C(=O)N[C@@H](C)C(=O)N[C@@H](Cc1c[nH]c2ccccc12)C(=O)N[C@@H](CC(C)C)C(=O)N[C@H](C(=O)N[C@@H](CCCNC(=N)N)C(=O)NCC(=O)N[C@@H](CCCNC(=N)N)C(=O)NCC(=O)O)C(C)C)[C@@H](C)CC)C(=O)O [liraglutide]
Premature treatment discontinuations due to AEs ([10]; with SGLT-2i): 7.2%
Premature treatment discontinuations due to AEs ([10]; without SGLT-2i): 6.4%

Compound: O=S(=O)(O)c1cc(O)ccc1O [CaD, Calcium dobesilate]
Mean decrease of retinal thickness [12]: 2.5 μm

Compound: insulin detemir
Estimated mean HbA1c prior to delivery [13]: 6.34%

Compound: CC[C@H](C)[C@H](NC(=O)[C@H](Cc1ccccc1)NC(=O)[C@H](CCC(=O)O)NC(=O)[C@H](CCCCNC(=O)COCCOCCNC(=O)COCCOCCNC(=O)CC[C@H](NC(=O)CCCCCCCCCCCCCCCCC(=O)O)C(=O)O)NC(=O)[C@H](C)NC(=O)[C@H](C)NC(=O)[C@H](CCC(N)=O)NC(=O)CNC(=O)[C@H](CCC(=O)O)NC(=O)[C@H](CC(C)C)NC(=O)[C@H](Cc1ccc(O)cc1)NC(=O)[C@H](CO)NC(=O)[C@H](CO)NC(=O)[C@@H](NC(=O)[C@H](CC(=O)O)NC(=O)[C@H](CO)NC(=O)[C@@H](NC(=O)[C@H](Cc1ccccc1)NC(=O)[C@@H](NC(=O)CNC(=O)[C@H](CCC(=O)O)NC(=O)C(C)(C)NC(=O)[C@@H](N)Cc1cnc[nH]1)[C@@H](C)O)[C@@H](C)O)C(C)C)C(=O)N[C@@H](C)C(=O)N[C@@H](Cc1c[nH]c2ccccc12)C(=O)N[C@@H](CC(C)C)C(=O)N[C@H](C(=O)N[C@@H](CCCNC(=N)N)C(=O)NCC(=O)N[C@@H](CCCNC(=N)N)C(=O)NCC(=O)O)C(C)C [oral semaglutide, semaglutide]
patients who stopped at least once due to an AE [14]: 27%

Compound: OC[C@H]1O[C@@H](c2ccc(Cl)c(Cc3ccc(O[C@H]4CCOC4)cc3)c2)[C@H](O)[C@@H](O)[C@@H]1O [EMPA, empagliflozin]
Garcia score (neurological deficit) (male Wistar rats): 12.0 (9.5; 14.0) points
body weight and whole-body fat (HFD C57BL/6J mice): Lower
myocardial damage (HFD C57BL/6J mice): reduced

Compound: CCOc1ccc(Cc2cc([C@]34OC[C@](CO)(O3)[C@@H](O)[C@H](O)[C@H]4O)ccc2Cl)cc1 [ertugliflozin]
Incidence of hypovolemia AEs ([15]; patients ≥65 yrs): 5.3%
Incidence of hypovolemia AEs ([15]; patients ≥75 yrs): 6.9%

Compound: CC[C@H](C)[C@H](NC(=O)[C@H](CC(C)C)NC(=O)[C@H](Cc1c[nH]c2ccccc12)NC(=O)[C@H](CCC(N)=O)NC(=O)[C@@H](NC(=O)[C@H](Cc1ccccc1)NC(=O)[C@H](C)NC(=O)[C@H](CCCCNC(=O)COCCOCCNC(=O)COCCOCCNC(=O)CC[C@H](NC(=O)CCCCCCCCCCCCCCCCCCC(=O)O)C(=O)O)NC(=O)[C@H](CCC(N)=O)NC(=O)[C@H](C)NC(=O)[C@@H](NC(=O)[C@H](CCCCN)NC(=O)[C@H](CC(=O)O)NC(=O)[C@H](CC(C)C)NC(=O)C(C)(C)NC(=O)[C@@H](NC(=O)[C@H](CO)NC(=O)[C@H](Cc1ccc(O)cc1)NC(=O)[C@H](CC(=O)O)NC(=O)[C@H](CO)NC(=O)[C@@H](NC(=O)[C@H](Cc1ccccc1)NC(=O)[C@@H](NC(=O)CNC(=O)[C@H](CCC(=O)O)NC(=O)C(C)(C)NC(=O)[C@@H](N)Cc1ccc(O)cc1)[C@@H](C)O)[C@@H](C)O)[C@@H](C)CC)[C@@H](C)CC)C(C)C)C(=O)N[C@@H](C)C(=O)NCC(=O)NCC(=O)N1CCC[C@H]1C(=O)N[C@@H](CO)C(=O)N[C@@H](CO)C(=O)NCC(=O)N[C@@H](C)C(=O)N1CCC[C@H]1C(=O)N1CCC[C@H]1C(=O)N1CCC[C@H]1C(=O)N[C@@H](CO)C(N)=O [Tirzepatide]
median tmax ([16]; across all groups): no change
geometric least squares mean t1/2 ([16]; control and hepatic impairment groups): similar

Compound: OC[C@H]1O[C@@H](c2ccc(Cl)c(Cc3ccc(O[C@H]4CCOC4)cc3)c2)[C@H](O)[C@@H](O)[C@@H]1O [empagliflozin, Empagliflozin]
Change in body weight at 3 years [6]: -4.5 ± 2.5 kg
Change in fasting plasma glucose at 3 years [6]: -59.3 ± 53.3 mg/dL
Body weight (C57BL/6 mice): 40 ± 0.9 g
Fat mass (C57BL/6 mice): 8.5 ± 1.5 g
Hazard ratio (95% CI) for gout flare or initiation of a drug for gout vs placebo ([17]; pooled empagliflozin): 0.67 (0.53, 0.85)
Patients with a gout flare or initiation of a drug for gout ([17]; pooled empagliflozin, patients not on UA lowering medication at baseline): 3.6%
Serum uric acid, adjusted mean (95% CI) treatment difference vs placebo ([17]; week 52, baseline UA levels ≥6 mg/dL): −0.46 (−0.55, −0.38) mg/dL
Serum uric acid, adjusted mean (95% CI) treatment difference vs placebo ([17]; week 52, pooled 10 and 25 mg/day): −0.37 (−0.42, −0.31) mg/dL

Compound: TNFα
Increase of PpargΔ5/cPparg ratio [18]: 2.5 fold

Compound: CC[C@H](C)[C@H](NC(=O)[C@H](CC(C)C)NC(=O)[C@H](Cc1c[nH]c2ccccc12)NC(=O)[C@H](CCC(N)=O)NC(=O)[C@@H](NC(=O)[C@H](Cc1ccccc1)NC(=O)[C@H](C)NC(=O)[C@H](CCCCNC(=O)COCCOCCNC(=O)COCCOCCNC(=O)CC[C@H](NC(=O)CCCCCCCCCCCCCCCCCCC(=O)O)C(=O)O)NC(=O)[C@H](CCC(N)=O)NC(=O)[C@H](C)NC(=O)[C@@H](NC(=O)[C@H](CCCCN)NC(=O)[C@H](CC(=O)O)NC(=O)[C@H](CC(C)C)NC(=O)C(C)(C)NC(=O)[C@@H](NC(=O)[C@H](CO)NC(=O)[C@H](Cc1ccc(O)cc1)NC(=O)[C@H](CC(=O)O)NC(=O)[C@H](CO)NC(=O)[C@@H](NC(=O)[C@H](Cc1ccccc1)NC(=O)[C@@H](NC(=O)CNC(=O)[C@H](CCC(=O)O)NC(=O)C(C)(C)NC(=O)[C@@H](N)Cc1ccc(O)cc1)[C@@H](C)O)[C@@H](C)O)[C@@H](C)CC)[C@@H](C)CC)C(C)C)C(=O)N[C@@H](C)C(=O)NCC(=O)NCC(=O)N1CCC[C@H]1C(=O)N[C@@H](CO)C(=O)N[C@@H](CO)C(=O)NCC(=O)N[C@@H](C)C(=O)N1CCC[C@H]1C(=O)N1CCC[C@H]1C(=O)N1CCC[C@H]1C(=O)N[C@@H](CO)C(N)=O [TZP, Tirzepatide]
Diarrhoea, patients reporting [19]: 12-21%
Incidence of hypoglycaemia (blood glucose <3.0 mmol/L) or severe hypoglycaemia [19]: 14-19%
Nausea, patients reporting [19]: 13-18%
Vomiting, patients reporting [19]: 7-13%
Diarrhoea [20]: 13-16%
Nausea [20]: 17-22%
Vomiting [20]: 6-10%
Diarrhoea [21]: 12-14%
Nausea [21]: 12-18%

Compound: lipopolysaccharides [LPS]
Increase of PpargΔ5/cPparg ratio (C57BL/6J mice): 3.5 fold
